Laboratory results as given in patent US20240158446A1, “CYCLIC COMPOUND HAVING SELECTIVE INHIBITORY ACTION ON KRAS OVER HRAS AND NRAS” (CHUGAI SEIYAKU KABUSHIKI KAISHA, priority 2021, published 2024).
Read-outs that look alike come from different tables or passages of the source. *1 amine or outer side, *2 acyl side, *3 side chain or, on linkers, in order; H or OH if unused. Where a SMILES comes first, the peptide text is derived from it. Bridges are numbered along the chain shown (N, C = ends). [ ]: non-standard residue; d: D form. The star is where a group is joined. hPhe(3-Cl-4-CF3) = N[C@@H](CCc1ccc(C(F)(F)F)c(Cl)c1)C(=O)O; X17 = CCCCN([C@@H](Cc1ccc(C(F)(F)F)cc1)C(=O)[*:2])[*:1]; NPrPhe(4-CF3) = CCCN[C@@H](Cc1ccc(C(F)(F)F)cc1)C(=O)O; NMeGly(cPent) = CN[C@H](C(=O)O)C1CCCC1; NMeD = CN[C@@H](CC(=O)O)C(=O)O; NMeL = CN[C@@H](CC(C)C)C(=O)O; Morpholide = C1CN(*)CCO1; NMeA = CN[C@@H](C)C(=O)O; Ac5c = NC1(C(=O)O)CCCC1; Aze = O=C(O)[C@@H]1CCN1; Sar = CNCC(=O)O

Key:
[1] = target: GDP-bound HRAS wild-type protein (Homo sapiens, UniProt P01112); assay: Binding to HRAS by surface plasmon resonance (SPR), Single Cycle Kinetics; details: SPR, GDP-bound HRAS wild-type protein vs GDP-bound KRAS wild-type protein
Sequence of GDP-bound HRAS wild-type protein (P01112 whole entry): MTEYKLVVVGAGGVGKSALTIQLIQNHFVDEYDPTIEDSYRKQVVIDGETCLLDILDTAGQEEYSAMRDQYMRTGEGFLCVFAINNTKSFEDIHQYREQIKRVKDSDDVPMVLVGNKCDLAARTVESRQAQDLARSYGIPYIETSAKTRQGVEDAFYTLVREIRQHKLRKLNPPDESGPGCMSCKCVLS

[2] = target: GDP-bound KRAS wild-type protein (Homo sapiens, UniProt P01116); assay: Binding to KRAS by surface plasmon resonance (SPR), Single Cycle Kinetics; details: GDP-bound KRAS wild-type protein, read-out: KRAS KD
Sequence of GDP-bound KRAS wild-type protein (P01116 whole entry): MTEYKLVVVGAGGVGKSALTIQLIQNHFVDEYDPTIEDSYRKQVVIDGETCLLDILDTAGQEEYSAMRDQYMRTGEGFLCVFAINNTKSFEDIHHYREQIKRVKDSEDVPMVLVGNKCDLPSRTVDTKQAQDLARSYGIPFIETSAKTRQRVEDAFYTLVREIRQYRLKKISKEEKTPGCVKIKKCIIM

[3] = target: GDP-bound NRAS wild-type protein (Homo sapiens, UniProt P01111); assay: Binding to NRAS by surface plasmon resonance (SPR), Single Cycle Kinetics; details: SPR, GDP-bound NRAS wild-type protein vs GDP-bound KRAS wild-type protein
Sequence of GDP-bound NRAS wild-type protein (P01111 whole entry): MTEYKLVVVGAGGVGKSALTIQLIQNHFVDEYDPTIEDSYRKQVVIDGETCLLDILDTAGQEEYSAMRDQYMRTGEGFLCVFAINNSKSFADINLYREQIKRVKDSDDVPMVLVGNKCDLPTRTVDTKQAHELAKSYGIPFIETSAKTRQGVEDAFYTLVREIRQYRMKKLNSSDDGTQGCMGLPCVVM

[4] = SPR Single Cycle Kinetics, 1:1 binding model

Compound	HRAS/KRAS (ratio of KD value for HRAS to KD value for KRAS) [1]	Kd [2, 4]	NRAS/KRAS (ratio of KD value for NRAS to KD value for KRAS) [3]	Kd ([2]; SPR, Single Cycle Kinetics)	HRAS/KRAS (ratio of KD value for HRAS to KD value for KRAS) ([1]; KD ratio class)	Kd ([2]; SPR, Single Cycle Kinetics, 1:1 binding model)	NRAS/KRAS (ratio of KD value for NRAS to KD value for KRAS) ([3]; KD ratio class)
CCCCN1C(=O)[C@@H]2CCN2C(=O)[C@H](C)N(C)C(=O)[C@H]([C@@H](C)CC)NC(=O)[C@H](CC(C)C)N(C)C(=O)C[C@@H](C(=O)N2CCOCC2)N(C)C(=O)[C@H](C2CCCC2)N(C)C(=O)C2(CCCC2)NC(=O)[C@@H]2CCCN2C(=O)[C@H](CCc2ccc(C(F)(F)F)c(Cl)c2)NC(=O)CN(C)C(=O)[C@@H]1Cc1ccc(C(F)(F)F)cc1 [PP0106] ([NMeL]I[NMeA][Aze][X17][Sar][hPhe(3-Cl-4-CF3)]P[Ac5c][NMeGly(cPent)][NMeD]-Morpholide; lactam N-11)	B (a compound having 3 or more and less than 10 is denoted as B)	190 pM	C (A compound having a KD ratio of 0.1 or more and less than 3 is denoted as C)	–	–	–	–
CCO[C@@H]1C[C@H]2C(=O)NC3(CCC3)C(=O)N(C)[C@@H](C3CCCC3)C(=O)N(CCC3CCCC3)[C@H](C(=O)N(C)C)CC(=O)N(C)[C@@H](CC)C(=O)N[C@@H]([C@@H](C)CC)C(=O)N(C)CC(=O)N(C)[C@H]3C/C=C\CCN(C3=O)[C@@H](Cc3ccc(C(F)(F)F)cc3)C(=O)N(C)CC(=O)N[C@@H](CCc3cc(F)c(C(F)(F)F)c(F)c3)C(=O)N2C1 [PP0982]	A (a compound having 10 or more and less than 20 is denoted as A)	–	AA (a compound having 20 or more is denoted as AA)	990 pM	–	–	–
CCCN1C(=O)CN(C)C(=O)CNC(=O)[C@H]([C@@H](C)CC)NC(=O)[C@H](CC(C)C)N(C)C(=O)C[C@@H](C(=O)N2CCOCC2)N(C)C(=O)[C@H](C2CCCC2)N(C)C(=O)C2(CCCC2)NC(=O)[C@@H]2CCCN2C(=O)[C@H](CCc2ccc(C(F)(F)F)c(Cl)c2)NC(=O)CN(C)C(=O)[C@@H]1Cc1ccc(C(F)(F)F)cc1 [PP0155] ([NMeL]IG[Sar][NPrPhe(4-CF3)][Sar][hPhe(3-Cl-4-CF3)]P[Ac5c][NMeGly(cPent)][NMeD]-Morpholide; lactam N-11)	C (A compound having a KD ratio of 0.1 or more and less than 3 is denoted as C)	180 pM	B (a compound having 3 or more and less than 10 is denoted as B)	–	–	–	–
CC[C@H](C)[C@@H]1NC(=O)[C@H](CC(C)C)N(C)C(=O)C[C@@H](C(=O)N2CCOCC2)N(C)C(=O)[C@H](C2CCCC2)N(C)C(=O)C2(CCC2)NC(=O)[C@@H]2C[C@@H](OCC(F)F)CN2C(=O)[C@H](CCc2cc(F)c(C(F)(F)F)c(F)c2)NC(=O)CN(C)C(=O)[C@H](Cc2ccc(C(F)(F)F)cc2)N2CCCC[C@@H](C2=O)N(C)C(=O)CN(C)C1=O [PP1002]	B (a compound having 3 or more and less than 10 is denoted as B)	–	B (a compound having 3 or more and less than 10 is denoted as B)	25 pM	–	–	–
CCO[C@@H]1C[C@H]2C(=O)NC3(CCC3)C(=O)N(C)[C@@H](C3CCCC3)C(=O)N(C)[C@H](C(=O)N(C)C)CC(=O)N(C)[C@@H](CC)C(=O)N[C@@H]([C@@H](C)CC)C(=O)N(C)CC(=O)N(C)[C@H]3CC/C=C(/C)CN(C3=O)[C@@H](Cc3ccc(C(F)(F)F)cc3)C(=O)N(C)CC(=O)N[C@@H](CCc3cc(F)c(C(F)(F)F)c(F)c3)C(=O)N2C1 [PP1334]	–	–	–	–	B (a compound having 3 or more and less than 10 is denoted as B)	11000 pM	B (a compound having 3 or more and less than 10 is denoted as B)
CCCN1CC(=O)N(C)[C@H]2C/C=C\CCN(C2=O)[C@@H](Cc2ccc(C)cc2)C(=O)N(C)CC(=O)N[C@@H](CCc2ccc(C(F)(F)F)c(OC)c2)C(=O)N2C[C@H](OCC)C[C@H]2C(=O)NC2(CC(C)(C)C2)C(=O)N(C)[C@@H](C2CCCC2)C(=O)N(C)[C@H](C(=O)N(C)C)CC(=O)N(C)[C@@H](CC)C(=O)N[C@@H]([C@@H](C)CC)C1=O [PP2096]	A (a compound having 10 or more and less than 20 is denoted as A)	–	A (a compound having 10 or more and less than 20 is denoted as A)	420 pM	–	–	–
CCC[C@H]1C(=O)N[C@@H]([C@@H](C)CC)C(=O)N2CCC[C@H]2C(=O)N(C)[C@H]2C/C=C\CCN(C2=O)[C@@H](Cc2ccc(C)cc2)C(=O)N(C)CC(=O)N[C@@H](CCc2ccc(C(F)(F)F)c(OC)c2)C(=O)N2C[C@H](OCC)C[C@H]2C(=O)N(C)C2(CCC2)C(=O)N(C)[C@@H](C2CCCC2)C(=O)N(C)[C@H](C(=O)N(C)C)CC(=O)N1C [PP2332]	B (a compound having 3 or more and less than 10 is denoted as B)	–	A (a compound having 10 or more and less than 20 is denoted as A)	100 pM	–	–	–
